Target: unphosphorylated-BTK kinase domain (UP-BTK), GST-tagged human BTK (389-659aa) (Homo sapiens (Human), UniProt Q06187)
Experiment: BTK kinase Lanthascreen binding assay
Settings: pIC50 = negative log of the IC50 in molar, 60 minutes incubation, 50 nM Tracer 236; for IC50: read-out: BTK_I_binding pIC50 (converted)
Method in brief: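 Tracer-displacement binding assay against the non-phosphorylated enzyme, read by Lanthascreen. Reported: pIC50.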

Sequence of unphosphorylated-BTK kinase domain (UP-BTK), GST-tagged human BTK (389-659aa) (Q06187 389-659): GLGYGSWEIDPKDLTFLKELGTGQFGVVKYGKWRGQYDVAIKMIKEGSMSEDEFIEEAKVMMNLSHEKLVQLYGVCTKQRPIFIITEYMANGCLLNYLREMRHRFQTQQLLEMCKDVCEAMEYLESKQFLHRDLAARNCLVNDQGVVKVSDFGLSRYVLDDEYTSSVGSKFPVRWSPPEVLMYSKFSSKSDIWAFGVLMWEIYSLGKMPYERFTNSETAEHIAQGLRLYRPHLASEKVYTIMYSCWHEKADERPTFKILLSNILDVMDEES

Compound	BTK_I_binding pIC50	IC50 [nM]
N#C/C(=C\C1CC1)C(=O)N1CCC[C@@H](NC(=O)c2sc3nccc4c3c2NC(=O)N4c2c(F)cc(Oc3ccccc3)cc2F)C1 [Example 175, (R,E)-N-(1-(2-Cyano-3-cyclopropylacryloyl)piperidin-3-yl)-5-(2,6-difluoro-4-phenoxyphenyl)-4-oxo-4,5-dihydro-3H-1-thia-3,5,8-triazaacenaphthylene-2-carboxamide]	7.6	–
COc1ccc(N2C(=O)Nc3c(C(=O)N[C@@H]4CCCN(C(=O)/C(C#N)=[13CH]\C5CC5)C4)sc4nccc2c34)c(C)c1 [Example 176, ^13C—(R,Z)—N-(1-(2-Cyano-3-cyclopropylacryloyl)piperidin-3-yl)-5-(4-methoxy-2-methylphenyl)-4-oxo-4,5-dihydro-3H-1-thia-3,5,8-triazaacenaphthylene-2-carboxamide]	–	63.1
COc1ccc(N2C(=O)Nc3c(C(=O)N[C@@H]4CCCN(C(=O)/C(C#N)=[13CH]/C5CC5)C4)sc4nccc2c34)c(C)c1 [Example 177, ^13C—(R,E)-N-(1-(2-Cyano-3-cyclopropylacryloyl)piperidin-3-yl)-5-(4-methoxy-2-methylphenyl)-4-oxo-4,5-dihydro-3H-1-thia-3,5,8-triazaacenaphthylene-2-carboxamide]	–	39.8
Cc1cc(OC2CCCCC2)ccc1N1C(=O)Nc2c(C(=O)N[C@@H]3CCCN(C(=O)/C(C#N)=C/C4CC4)C3)sc3nccc1c23 [Example 178, (R,E)-N-(1-(2-Cyano-3-cyclopropylacryloyl)piperidin-3-yl)-5-(4-(cyclohexyloxy)-2-methylphenyl)-4-oxo-4,5-dihydro-3H-1-thia-3,5,8-triazaacenaphthylene-2-carboxamide]	–	100
Cc1cc(Oc2ccccc2)ccc1N1C(=O)Nc2c(C(=O)N[C@H]3CNC[C@H](O)C3)sc3nccc1c23 [Example 179, N-((3R,5R)-5-Hydroxypiperidin-3-yl)-5-(2-methyl-4-phenoxyphenyl)-4-oxo-4,5-dihydro-3H-1-thia-3,5,8-triazaacenaphthylene-2-carboxamide]	7.0	–
N#CCC(=O)N1CCC[C@@H](NC(=O)c2sc3nccc4c3c2NC(=O)N4c2ccc(Oc3ccccc3)cc2)C1 [Example 181, (R)—N-(1-(2-Cyanoacetyl)piperidin-3-yl)-4-oxo-5-(4-phenoxyphenyl)-4,5-dihydro-3H-1-thia-3,5,8-triazaacenaphthylene-2-carboxamide]	7.1	–
CN1CCC[C@@H](NC(=O)c2sc3nccc4c3c2NC(=O)N4c2ccc(Oc3ccccc3)cc2)C1 [Example 182, (R)—N-(1-Methylpiperidin-3-yl)-4-oxo-5-(4-phenoxyphenyl)-4,5-dihydro-3H-1-thia-3,5,8-triazaacenaphthylene-2-carboxamide]	6.7	–
Cc1cc(OC2CC2)ccc1N1C(=O)Nc2c(C(=O)N[C@@H]3CCCN(C(=O)/C(C#N)=C/C4CC4)C3)sc3nccc1c23 [Example 185, (R,E)-N-(1-(2-Cyano-3-cyclopropylacryloyl)piperidin-3-yl)-5-(4-cyclopropoxy-2-methylphenyl)-4-oxo-4,5-dihydro-3H-1-thia-3,5,8-triazaacenaphthylene-2-carboxamide]	7.5	–
Cc1cc(Oc2ccccc2)ccc1N1C(=O)Nc2c(C(=O)N[C@H]3CN(C)C[C@@H]3F)sc3nccc1c23 [Example 186, N-((3S,4S)-4-Fluoro-1-methylpyrrolidin-3-yl)-5-(2-methyl-4-phenoxyphenyl)-4-oxo-4,5-dihydro-3H-1-thia-3,5,8-triazaacenaphthylene-2-carboxamide]	6.8	–
Cc1cc(Oc2ccccc2)ccc1N1C(=O)Nc2c(C(=O)NC3CCCN(C)CC3)sc3nccc1c23 (stereo not drawn) [Example 187, 5-(2-Methyl-4-phenoxyphenyl)-N-(1-methylazepan-4-yl)-4-oxo-4,5-dihydro-3H-1-thia-3,5,8-triazaacenaphthylene-2-carboxamide]	6.7	–
COCC(C)(C)C(=O)N1CCC[C@@H](NC(=O)c2sc3nccc4c3c2NC(=O)N4c2ccc(Oc3ccccc3)cc2C)C1 [Example 188, (R)—N-(1-(3-Methoxy-2,2-dimethylpropanol)piperidin-3-yl)-5-(2-methyl-4-phenoxyphenyl)-4-oxo-4,5-dihydro-3H-1-thia-3,5,8-triazaacenaphthylene-2-carboxamide]	6.7	–
Cc1cc(Oc2ccccc2)ccc1N1C(=O)Nc2c(C(=O)NC3CCCN(C#N)CC3)sc3nccc1c23 (stereo not drawn) [Example 189, N-(1-Cyanoazepan-4-yl)-5-(2-methyl-4-phenoxyphenyl)-4-oxo-4,5-dihydro-3H-1-thia-3,5,8-triazaacenaphthylene-2-carboxamide]	6.6	–
COC[C@@H](OC)C(=O)N1CCC[C@@H](NC(=O)c2sc3nccc4c3c2NC(=O)N4c2ccc(Oc3ccccc3)cc2C)C1 [Example 190, N—((R)-1-((R)-2,3-Dimethoxypropanoyl)piperidin-3-yl)-5-(2-methyl-4-phenoxyphenyl)-4-oxo-4,5-dihydro-3H-1-thia-3,5,8-triazaacenaphthylene-2-carboxamide]	7.0	–
Cc1cc(Oc2ccccc2)ccc1N1C(=O)Nc2c(C(=O)N[C@@H]3CCCN(C(=O)[C@@H]4CCNC4)C3)sc3nccc1c23 [Example 191, 5-(2-Methyl-4-phenoxyphenyl)-4-oxo-N—((R)-1-((R)-pyrrolidine-3-carbonyl)piperidin-3-yl)-4,5-dihydro-3H-1-thia-3,5,8-triazaacenaphthylene-2-carboxamide]	7.1	–
Cc1cc(Oc2ccccc2)ccc1N1C(=O)Nc2c(C(=O)NC3(CO)CCOCC3)sc3nccc1c23 [Example 192, N-(4-(Hydroxymethyl)tetrahydro-2H-pyran-4-yl)-5-(2-methyl-4-phenoxyphenyl)-4-oxo-4,5-dihydro-3H-1-thia-3,5,8-triazaacenaphthylene-2-carboxamide]	6.8	–
CCOc1ccc(N2C(=O)Nc3c(C(=O)N[C@@H]4CCCN(C(=O)/C(C#N)=C/C5CC5)C4)sc4nccc2c34)c(C)c1 [Example 193, (R,E)-N-(1-(2-Cyano-3-cyclopropylacryloyl)piperidin-3-yl)-5-(4-ethoxy-2-methylphenyl)-4-oxo-4,5-dihydro-3H-1-thia-3,5,8-triazaacenaphthylene-2-carboxamide]	7.3	–
C=CC(=O)N1CCC[C@@H](NC(=O)c2sc3nccc4c3c2NC(=O)N4c2ccccc2F)C1 [Example 194, (R)—N-(1-Acryloylpiperidin-3-yl)-5-(2-fluorophenyl)-4-oxo-4,5-dihydro-3H-1-thia-3,5,8-triazaacenaphthylene-2-carboxamide]	6.9	–
Cc1cc(Oc2ccccc2)ccc1N1C(=O)Nc2c(C(=O)N[C@@H]3CCCN(C(=O)/C(C#N)=C\C(C)(C)N)C3)sc3nccc1c23 [Example 195, (R,Z)—N-(1-(4-Amino-2-cyano-4-methylpent-2-enoyl)piperidin-3-yl)-5-(2-methyl-4-phenoxyphenyl)-4-oxo-4,5-dihydro-3H-1-thia-3,5,8-triazaacenaphthylene-2-carboxamide]	7.4	–

— US10800792B2, “Inhibitors of Bruton's tyrosine kinase and method of their use” (JANSSEN PHARMACEUTICA NV, priority 2015, dated 2020)
